Measurements published in patent US11168075B2, “Compounds and their use for reducing uric acid levels” (Acquist LLC, priority 2016, dated 2021).
Where two headings read alike, the source gives them in different places.

Target: xanthine oxidase (Homo sapiens (Human), UniProt P47989)
Assay: Fluorescence-based xanthine oxidase activity assay
Assay type: biochemical
Details: for inhibition of xanthine oxidase compared to allopurinol: statement in words
[1] = read-out: Xanthine Oxidase IC50

xanthine oxidase, sequence (P47989 whole entry, species assumed): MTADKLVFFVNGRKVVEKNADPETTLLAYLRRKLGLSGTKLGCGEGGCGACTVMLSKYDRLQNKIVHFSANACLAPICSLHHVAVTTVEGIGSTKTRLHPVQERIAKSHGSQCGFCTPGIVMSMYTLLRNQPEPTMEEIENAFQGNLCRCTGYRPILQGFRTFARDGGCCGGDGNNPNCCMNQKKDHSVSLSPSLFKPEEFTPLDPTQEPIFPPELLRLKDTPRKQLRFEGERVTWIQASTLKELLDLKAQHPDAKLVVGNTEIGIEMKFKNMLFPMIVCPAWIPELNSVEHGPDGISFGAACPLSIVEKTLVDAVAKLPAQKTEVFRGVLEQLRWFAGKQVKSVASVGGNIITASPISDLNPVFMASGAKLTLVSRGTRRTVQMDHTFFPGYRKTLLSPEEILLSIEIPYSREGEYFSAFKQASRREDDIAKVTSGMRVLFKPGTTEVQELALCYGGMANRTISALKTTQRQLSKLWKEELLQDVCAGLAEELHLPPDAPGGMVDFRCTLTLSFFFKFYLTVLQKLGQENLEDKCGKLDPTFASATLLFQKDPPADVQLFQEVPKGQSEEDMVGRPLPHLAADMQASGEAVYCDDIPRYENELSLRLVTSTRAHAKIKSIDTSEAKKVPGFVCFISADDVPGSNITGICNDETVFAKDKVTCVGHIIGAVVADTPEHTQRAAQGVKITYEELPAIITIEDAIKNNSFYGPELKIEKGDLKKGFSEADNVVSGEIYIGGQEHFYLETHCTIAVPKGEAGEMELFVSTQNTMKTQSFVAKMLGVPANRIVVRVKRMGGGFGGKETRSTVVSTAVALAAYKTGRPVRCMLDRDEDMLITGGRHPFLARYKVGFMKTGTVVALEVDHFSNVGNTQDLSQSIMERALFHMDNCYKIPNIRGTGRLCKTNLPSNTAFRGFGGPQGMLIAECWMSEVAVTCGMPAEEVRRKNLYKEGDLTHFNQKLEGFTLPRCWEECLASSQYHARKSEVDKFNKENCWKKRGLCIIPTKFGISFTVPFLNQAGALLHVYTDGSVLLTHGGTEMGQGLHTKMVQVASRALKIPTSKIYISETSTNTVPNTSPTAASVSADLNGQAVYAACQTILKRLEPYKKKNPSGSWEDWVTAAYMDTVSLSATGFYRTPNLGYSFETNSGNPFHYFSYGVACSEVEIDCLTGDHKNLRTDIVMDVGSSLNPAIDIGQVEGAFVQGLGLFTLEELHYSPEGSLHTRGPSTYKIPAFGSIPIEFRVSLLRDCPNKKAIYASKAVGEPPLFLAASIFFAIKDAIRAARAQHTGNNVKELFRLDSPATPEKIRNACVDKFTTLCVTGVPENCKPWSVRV

Compound	IC50 [1]	inhibition of xanthine oxidase compared to allopurinol	IC50
O=C1NS(=O)(=O)c2cc(NC(=O)c3c(O)[nH]c(=O)[nH]c3=O)ccc21 [Formula (IIIa), N-(1,1-dioxido-3-oxo-2,3-dihydrobenzo[d]isothiazol-6-yl)-2,4,6-trihydroxypyrimidine-5-carboxamide]	4.5 µM	–	–
COc1nc(O)c(C(=O)Nc2ccc(-c3cnn[nH]3)cc2)c(=O)[nH]1 [Formula (IIb), N-(4-(3H-1,2,3-triazol-4-yl)phenyl)-4-hydroxy-2-methoxy-6-oxo-1,6-dihydropyrimidine-5-carboxamide]	0.56 µM	particularly potent inhibitors	–
CC(C)Sc1nc(O)c(C(=O)Nc2ccc(-c3c[nH]nn3)cc2)c(=O)[nH]1 [Formula (IId), N-(4-(1H-1,2,3-triazol-5-yl)phenyl)-4-hydroxy-2-(isopropylthio)-6-oxo-1,6-dihydropyrimidine-5-carboxamide]	–	particularly potent inhibitors	–
O=C(Nc1ccc2[nH]c(=O)[nH]c2c1)c1c(O)[nH]c(=O)[nH]c1=O [Formula (IVa), 6-hydroxy-2,4-dioxo-N-(2-oxo-2,3-dihydro-1H-benzo[d]imidazol-5-yl)-1,2,3,4-tetrahydropyrimidine-5-carboxamide]	8.6 µM	–	–
O=C1Nc2ccc(NC(=O)c3c(O)[nH]c(=O)[nH]c3=O)cc2C1=O [Formula (IVb), N-(2,3-dioxoindolin-5-yl)-6-hydroxy-2,4-dioxo-1,2,3,4-tetrahydropyrimidine-5-carboxamide]	> 300 µM	–	–
O=C(Nc1ccc2c(c1)C1(OCCO1)C(=O)N2)c1c(O)[nH]c(=O)[nH]c1=O [Formula (IVc), 6-Hydroxy-2,4-dioxo-N-(2′-oxospiro[[1,3]dioxolane-2,3′-indolin]-5′-yl)-1,2,3,4-tetrahydropyrimidine-5-carboxamide]	–	–	> 300 µM
N=C(Nc1ccc(-c2cnn[nH]2)cc1)c1c(O)[nH]c(=O)[nH]c1=O [Formula (Ia), N-(4-(1H-1,2,3-triazol-4-yl)phenyl)-6-hydroxy-2,4-dioxo-1,2,3,4-tetrahydropyrimidine-5-carboximidamide]	0.25 µM	particularly potent inhibitors	–
CS/C(=N\c1ccc(-c2cnn[nH]2)cc1)c1c(O)[nH]c(=O)[nH]c1=O [Formula (Ib), 5-(((4-(1H-1,2,3-triazol-5-yl)phenyl)amino)(methylthio)methylene)pyrimidine-2,4,6(1H,3H,5H)-trione]	–	–	54.1 µM
O=c1[nH]c(O)c(/C(=N\O)Nc2ccc(-c3cnn[nH]3)cc2)c(=O)[nH]1 [Formula (Ic), (E)-N-(4-(1H-1,2,3-triazol-5-yl)phenyl)-N′-hydroxy-2,4,6-trioxohexahydro-pyrimidine-5-carboximidamide]	–	–	1.2 µM
N/N=C(/Nc1ccc(-c2cnn[nH]2)cc1)c1c(O)[nH]c(=O)[nH]c1=O [Formula (Id), (E)-N-(4-(1H-1,2,3-triazol-5-yl)phenyl)-2,4,6-trioxohexahydropyrimidine-5-carbohydrazonamide]	–	–	> 300 µM
Cn1c(O)c(C(=O)Nc2ccc(-c3cnn[nH]3)cc2)c(=O)n(C)c1=O [Formula (Ie), N-(4-(1H-1,2,3-triazol-4-yl)phenyl)-6-hydroxy-1,3-dimethyl-2,4-dioxo-1,2,3,4-tetrahydropyrimidine-5-carboxamide]	1.6 µM	particularly potent inhibitors	–
Cn1c(O)c(C(=N)Nc2ccc(-c3cnn[nH]3)cc2)c(=O)n(C)c1=O [Formula (If), N-(4-(1H-1,2,3-triazol-5-yl)phenyl)-6-hydroxy-1,3-dimethyl-2,4-dioxo-1,2,3,4-tetrahydropyrimidine-5-carboximidamide]	0.2 µM	particularly potent inhibitors	–
Cn1c(=O)[nH]c(O)c(C(=O)Nc2ccc(-c3cnn[nH]3)cc2)c1=O [Formula (Ig), N-(4-(1H-1,2,3-triazol-4-yl)phenyl)-2,4-dihydroxy-1-methyl-6-oxo-1,6-dihydropyrimidine-5-carboxamide]	0.55 µM	particularly potent inhibitors	–
Cn1c(=O)[nH]c(O)c(C(=N)Nc2ccc(-c3cnn[nH]3)cc2)c1=O [Formula (Ih)]	–	particularly potent inhibitors	0.74 µM
O=C(NC1CCC(c2c[nH]nn2)CC1)c1c(O)[nH]c(=O)[nH]c1=O (stereo not shown) [Formula (Ii)]	> 296 µM	–	–
O=C(NC1CCC(O)(c2c[nH]nn2)CC1)c1c(O)[nH]c(=O)[nH]c1=O (stereo not shown) [Formula (Ij), 6-hydroxy-N-(4-hydroxy-4-(1H-1,2,3-triazol-4-yl)cyclohexyl)-2,4-dioxo-1,2,3,4-tetrahydropyrimidine-5-carboxamide]	13.1 µM	–	–
Nc1[nH]c(=O)[nH]c(=O)c1C(=O)Nc1ccc(-c2c[nH]nn2)cc1 [Formula (Ik), N-(4-(1H-1,2,3-triazol-5-yl)phenyl)-6-amino-2,4-dioxo-1,2,3,4-tetrahydropyrimidine-5-carboxamide]	1.3 µM	particularly potent inhibitors	–
O=C(Nc1c(O)[nH]c(=O)[nH]c1=O)c1ccc(-c2cnn[nH]2)cc1 [Formula (Il), 4-(1H-1,2,3-triazol-4-yl)-N-(2,4,6-trioxohexahydropyrimidin-5-yl)benzamide]	–	–	6.3 µM
O=C(Nc1ccc(-c2[nH]nnc2-c2ccccc2)cc1)c1c(O)[nH]c(=S)[nH]c1=O [Formula (Im), 6-hydroxy-4-oxo-N-(4-(4-phenyl-1H-1,2,3-triazol-5-yl)phenyl)-2-thioxo-1,2,3,4-tetrahydropyrimidine-5-carboxamide]	18.2 µM	–	–
O=C(Nc1ccc(-c2noc(C(F)(F)F)n2)cc1)c1c(O)[nH]c(=O)[nH]c1=O [Formula (In), 6-hydroxy-2,4-dioxo-N-(4-(5-(trifluoromethyl)-1,2,4-oxadiazol-3-yl)phenyl)-1,2,3,4-tetrahydropyrimidine-5-carboxamide]	–	–	292 µM
O=C(NO)c1ccc(NC(=O)c2c(O)[nH]c(=O)[nH]c2=O)cc1 [Formula (VIIIa), 6-hydroxy-N-(4-(hydroxycarbamoyl)phenyl)-2,4-dioxo-1,2,3,4-tetrahydropyrimidine-5-carboxamide]	17.4 µM	–	–
O=C(NO)c1cc(NC(=O)c2c(O)[nH]c(=O)[nH]c2=O)ccn1 [Formula (VIIIb), 6-hydroxy-N-(2-(hydroxycarbamoyl)pyridin-4-yl)-2,4-dioxo-1,2,3,4-tetrahydropyrimidine-5-carboxamide]	73.8 µM	–	–
O=c1nc2[nH]n(-c3ccc(-c4cnn[nH]4)cc3)c(=O)c2c(O)[nH]1 [Formula (VIIa), 2-(4-(1H-1,2,3-triazol-5-yl)phenyl)-4,6-dihydroxy-1H-pyrazolo[3,4-d]pyrimidin-3(2H)-one]	7 µM	–	–
O=c1[nH]c(=O)c2c(Nc3ccc(-c4cnn[nH]4)cc3)n[nH]c2[nH]1 [Formula (VIb), 3-((4-(1H-1,2,3-triazol-5-yl)phenyl)amino)-1H-pyrazolo[3,4-d]pyrimidine-4,6(5H,7H)-dione]	0.14 µM	particularly potent inhibitors	–
Cn1c(=O)c2c(Nc3ccc(-c4cnn[nH]4)cc3)n[nH]c2n(C)c1=O [Formula (VIc), 3-((4-(1H-1,2,3-triazol-5-yl)phenyl)amino)-5,7-dimethyl-1H-pyrazolo[3,4-d]pyrimidine-4,6(5H,7H)-dione]	2.5 µM	–	–
O=C(Nc1nc(O)c2cn[nH]c2n1)c1c(O)[nH]c(=O)[nH]c1=O [Formula (Va), 6-hydroxy-N-(4-hydroxy-1H-pyrazolo[3,4-d]pyrimidin-6-yl)-2,4-dioxo-1,2,3,4-tetrahydropyrimidine-5-carboxamide]	36.1 µM	–	–
